For orientation: IC50 means the concentration that inhibits the measured activity by half. Low readings indicate inhibition by little substance, high ones a need for much substance.

For assay [1], the system named is 246 different kinases (activity) and 143 different kinases (substrate binding). The assay is described as follows: Kinase profiling analysis (Life Technologies' SelectScreen Profiling Service). It counts as biochemical. As to conditions: 500 nM; activity of 246 kinases, substrate binding to 143 kinases. The method, then:
To shed light onto its potential target, compound 1 was submitted to a commercial vendor for kinase profiling analysis (Life Technologies' SelectScreen Profiling Service), in which the inhibitory effects of compound 1 at 500 nM on the activity of 246 different kinases as well as substrate binding to 143 different kinases were tested.

For assay [2], the system named is MCF-7 breast cancer cells. The assay is described as follows: MTT cell viability assay, MCF-7. As to conditions: Homo sapiens, MCF7; MCF-7, MTT, 24 hours. The assay is classed as cell-based. The source says:
(§1) Cell lines, cell culture, biochemical reagents, and antibodies. MiaPaCa-2, AsPC-1, and Panc-1 human pancreatic cancer cells, MCF-7 and MDA-MB-231 breast cancer cells, SCC4 and SCC2059 oral cancer cells, PC-3 and LNCaP prostate cancer cells, H157, H460, H1975, PC-9 and H1650 lung cancer cells were obtained from the American Type Culture Collection (ATCC, Manassas, Va.). All these cells were maintained in recommended growth medium (RPMI 1640 or DMEM) supplemented with 10% fetal bovine serum (FBS) (Invitrogen, Carlsbad, Calif., USA) and antibiotics at 37° C. in a humidified incubator containing 5% CO2. For SILAC experiments, PC-9 cells were grown in SILAC DMEM medium (Thermo Fisher) supplemented with 10% dialyzed FBS and 100 μg/mL each of unlabeled L-arginine and L-lysine (light medium) or ^13C/^15N stable isotope-labeled L-arginine and L-lysine (heavy medium). […]
(§2) Cell viability assays. Drug effects on cell viability was assessed by 3-(4,5-dimethylthiazol-2-yl)-2,5-diphenyltetrazolium bromide ([…]) assays. […] The medium was then removed from each well and replaced with DMSO to dissolve the reduced MTT dye for subsequent colorimetric measurement of absorbance at 560 nm. Cell viabilities are expressed as percentages of viable cells relative to the corresponding vehicle-treated control group.
(Tetrazolium dyes change colour on reduction, which living cells bring about.)

Assay [3] deals with PC-3 prostate cancer cells. The assay is described as follows: MTT cell viability assay, PC-3. As to conditions: Homo sapiens; PC-3, MTT, 24 hours. The assay is classed as cell-based.
Description: as §1, §2

The target of assay [4] is PKM2 (Homo sapiens, UniProt P14618). Nature of the assay: Gel-based ABPP competition for PKM2 binding in PC-9 cells. Details: PC-9 cells were pre-incubated with 1 μM compound 1 for 1 hour, and treated with compound 2; endogenous in cells; host or cells: PC-9 cells. As to conditions: 1 μM compound 1, 1 hour, Western blot. The method, then: (§3) As this cell-based kinase assay could not rule out the involvement of PKM1, we examined the abilities of compound 1 to inhibit the kinase activity of recombinant PKM2 (SAE0021, Sigma-Aldrich) versus recombinant PKM1 (SRP0415, Sigma-Aldrich) using a commercial PKM assay kit. […] In brief, PC-9 cells were exposed to different concentrations of compound 2 in the presence of compound 1 (1 μM) for 1 hour, lysed, and the cell lysates were treated with biotin-azide, followed by streptavidin bead pulldown under the aforementioned conditions. […] The antigen of compound 1 was prepared by coupling this small molecule with cysteine residues of ovalbumin, which was then used for immunization in guinea pigs.
Chain of PKM2 (P14618 whole entry): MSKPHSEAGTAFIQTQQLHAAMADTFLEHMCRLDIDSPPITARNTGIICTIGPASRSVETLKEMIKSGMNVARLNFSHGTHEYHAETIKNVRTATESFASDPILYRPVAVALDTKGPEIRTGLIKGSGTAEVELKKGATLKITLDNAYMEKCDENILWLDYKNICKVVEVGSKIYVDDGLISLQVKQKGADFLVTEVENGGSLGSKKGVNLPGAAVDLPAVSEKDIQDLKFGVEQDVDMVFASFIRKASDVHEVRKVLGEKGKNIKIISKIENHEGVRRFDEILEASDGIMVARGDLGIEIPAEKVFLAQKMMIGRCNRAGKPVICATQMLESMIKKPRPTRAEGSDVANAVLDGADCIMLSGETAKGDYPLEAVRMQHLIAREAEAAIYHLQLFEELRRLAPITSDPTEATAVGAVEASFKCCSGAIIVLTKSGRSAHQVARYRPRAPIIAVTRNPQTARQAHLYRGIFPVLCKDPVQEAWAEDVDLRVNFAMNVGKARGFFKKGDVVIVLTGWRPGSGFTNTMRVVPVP
Gel-based ABPP. PC-9 cells (2×10^6) were seeded in DMEM growth medium in 10-cm plates. After overnight incubation, the growth medium was replaced with fresh medium, followed by the addition of 1 μM compound 1 or DMSO control. After 1 hour, the ABPP probe compound 2 at 0.5, 1 and 2 μM was then added, and incubated at 37° C. for an additional 1 hour. The cell lysates were subjected to copper-catalyzed Click reaction, and biotin-tagged proteins were treated with 50 μL of streptavidin-coupled magnetic beads for 16 hours at 4° C. After incubation, cell lysates were washed by PBS containing 0.5% SDS three times to remove nonspecific binding. […]
(In general: In western blotting, separated proteins are transferred to a membrane and probed.)

The subject of assay [5] is ROS production in PC-9 cells. Nature of the assay: ROS assay. The assay is classed as cell-based, human. The following applies: 0.25 μM and 0.5 μM, 6 hours. The method, then:
ROS assay. ROS detection was performed by using a fluorescent assay kit from BioVision (Milpitas, Calif., USA) according to the manufacturer's instructions. Briefly, PC-9 cells were seeded into 96-well plate at a cell density of 2×10^4 cells per well. After 24 hours, cells were treated with indicated concentration of compound 1 or DMSO for 6 hours. After treatment, cells were washed in ROS assay buffer and then incubated with 1×ROS label diluted in ROS assay buffer for 45 min at 37° C. in the dark. The ROS label was removed, and the fluorescence at Ex/Em 495/529 nm in end point mode was measured immediately after 100 μl of ROS assay buffer was added to each well.

Assay [6] concerns LNCaP prostate cancer cells. Nature of the assay: MTT cell viability assay, LNCaP. The assay is classed as cell-based. As to conditions: Homo sapiens, 24 hours.
Description: as §1, §2

In assay [7] the test system is H1650 lung cancer cells. Nature of the assay: MTT cell viability assay, H1650. The assay is classed as cell-based. As to conditions: Homo sapiens, NCI-H1650, H1650 (mutant EGFR), 24 hours.
Description: as §1, §2

Assay [8] concerns the target T1, recombinant PKM1 (Homo sapiens, UniProt P14618).
T1 construct: purchased Sigma-Aldrich SRP0415
Nature of the assay: Recombinant PKM1 kinase activity assay. It counts as biochemical. The following applies: after 20 min of exposure. The method, then:
as §3
Pyruvate kinase activity assays. PC-9 cells were seeded into 6 cm dishes at a concentration of 5×10^5 cells/mL. After 24 hours, cells were treated with 0.25 μM compound 1 or DMSO for 6 hours. The pyruvate kinase activity of compound 1-treated PC-9 and vehicle control cells was measured by using a commercial colorimetric assay kit from BioVision (Milpitas, Calif., USA) according to the manufacturer's protocol. In addition, to verify the specificity of compound 1 toward PKM2 versus PKM1, the inhibition of the kinase activity of recombinant PKM1 (SRP0415, Sigma-Aldrich) and recombinant PKM2 (SAE0021, Sigma-Aldrich) by compound 1 was conducted using the aforementioned assay kit.

SMILES strings stand for the structures. Bounds are passed on as bounds.

T1 sequence (P14618 1-531 isoform P14618-2): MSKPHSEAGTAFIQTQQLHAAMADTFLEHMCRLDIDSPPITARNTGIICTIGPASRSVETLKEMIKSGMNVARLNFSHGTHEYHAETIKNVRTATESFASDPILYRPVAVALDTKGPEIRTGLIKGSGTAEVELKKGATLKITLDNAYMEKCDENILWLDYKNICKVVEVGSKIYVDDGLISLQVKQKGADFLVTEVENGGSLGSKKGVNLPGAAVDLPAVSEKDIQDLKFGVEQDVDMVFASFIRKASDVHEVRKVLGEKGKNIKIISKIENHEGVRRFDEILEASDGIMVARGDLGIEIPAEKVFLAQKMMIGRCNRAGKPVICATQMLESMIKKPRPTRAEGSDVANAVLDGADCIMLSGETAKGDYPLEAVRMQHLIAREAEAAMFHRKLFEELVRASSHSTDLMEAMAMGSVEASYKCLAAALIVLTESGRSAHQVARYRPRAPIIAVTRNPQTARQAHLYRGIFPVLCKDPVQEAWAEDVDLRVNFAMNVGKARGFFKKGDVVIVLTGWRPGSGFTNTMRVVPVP

On to `C#CC(=O)Nc1ccc(-n2nc(CCC(=O)NC)cc2-c2ccc(-c3ccc(C(F)(F)F)cc3)cc2)cc1` [compound 1, N-(4-(3-(3-(Methylamino)-3-oxopropyl)-5-(4′-(trifluoromethyl)-[1,1′-biphenyl]-4-yl)-1H-pyrazol-1-yl)phenyl)propiolamide], for which the “inhibition of kinases in profiling panel” value in assay [1] was “none of the kinases examined was effectively inhibited”. Moreover, the IC50 was 1000 nM in assay [2], 600 nM in assay [3], above 2000 nM in assay [6] and 200 nM in assay [7]. In addition, the “competition with ABPP probe compound 2 for PKM2 binding” value in assay [4] is “binding of the ABPP probe to PKM2 was attenuated”. For the same compound, the ROS level result in assay [5] was “reduced the ROS level”. Also, the “inhibition of kinase activity of recombinant PKM1” value in assay [8] is “no appreciable inhibition”.

The values above are taken from patent US11117888B2, “Irreversible inhibitors of pyruvate kinase M2 and the use thereof” (China Medical University, priority 2020, dated 2021).
